Measured values: article PMC6028453, “BrlR from Pseudomonas aeruginosa is a receptor for both cyclic di-GMP and pyocyanin” (Nature Communications, 2018)

Legend:
BrlR mutant Y270A = biological target: T1, BrlR mutant Y270A (Pseudomonas aeruginosa, UniProt Q9HUT5, Y270A); assay: FP binding assay, BrlR Y270A
T1 construct: His6-SUMO (N, cleaved yes); made in house; host or cells: E. coli BL21 DE3
Protocol: F-c-di-GMP and F-c-di-AMP both contain a fluorophore at one of the 2′-ribose hydroxyls of c-di-GMP and c-di-AMP, respectively (Fig. 2f). To measure the binding of c-di-GMP and c-di-AMP to BrlR variants, 1 nM F-c-di-GMP or F-c-di-AMP was incubated with increasing amounts of indicated BrlR WT, BrlR mutation, or BrlR-C in reaction buffer (25 mM HEPES, 100 mM NaCl, pH 7.5) at 25 °C for 20 min. 1 nM fluorescein was incubated with BrlR WT in the same reaction buffer at 25 °C. FP measurements were conducted on a Synergy 4 Microplate Reader (BioTek) at 25 °C. All experiments were performed in triplicate. The curves were fitted to deduce binding affinities by GraphPad Prism 5.
BrlR–c-di-GMPs interactions in two separate c-di-GMP binding sites
In the first binding site, c-di-GMP is half accommodated by the antiparallel β-sheet and two residues (M1 and D35). In detail, the backbone amide protons of the first M1 residue form a hydrogen bond (H-bond) with the phosphate oxygen atom of c-di-GMP, and the side chain of R31 forms two H-bonds with the Gua1 base. The residue D35 also forms an H-bond with the Gua1 base. The aromatic ring of Y40 interacts with the Gua1 base through a hydrophobic π-π interaction. In addition, the hydroxyl group of the Y270 side chain from another subunit interacts with the phosphate 2 of c-di-GMP via an H-bond (Fig. 2d). […]

BrlR-C = biological target: T2, BrlR-C (Pseudomonas aeruginosa, UniProt Q9HUT5); assay: FP competition experiment, BrlR-C; assay type: binding; details: 550 μM BrlR-C, 1 nM F-c-di-GMP
T2 construct: His6 (cleaved yes); made in house; host or cells: E. coli (same protocol as BrlR, induction at 18 °C)
Protocol: Supplementary Figure 11: FP analyses of F-c-di-GMP binding to BrlR-C. (a) Isotherms of BrlR-C binding to F-c-di-GMP. The binding experiment was carried out at 25 °C in a buffer containing 150 mM NaCl, 25 mM Tris·HCl (pH 7.5), and 1 nM F-c-di-GMP. Increasing concentrations of BrlR-C were titrated into the reaction mixture to obtain the binding isotherms. (b) Fluorescence polarization competition experiment of BrlR-C. As a control, 550 μM BrlR-C was added to the reaction tube containing 1 nM F-c-di-GMP, and different competitors were respectively added in the solution and the values of millipolarization were recorded.
(1 picture or pasted object on this page, not shown here)

C2E mut2 DNA binding = biological target: T3, C2E mut2 DNA binding (Pseudomonas aeruginosa, UniProt Q9HUT5, R67A/R86A); assay: EMSA, C2E mut2 with PbrlR DNA; assay type: biochemical
T3 construct: His6-SUMO (N, cleaved yes); made in house; host or cells: E. coli BL21 DE3
Protocol: (§1) A 6-carboxy-fluorescein (FAM)-labeled 36-bp brlR promoter DNA (PbrlR) or 80-bp mexA/mexE promoter DNA (PmexA/PmexE) probes (~0.375 pmol), BrlR protein and varying amounts of inducers were incubated in binding buffer (10 mM Tris HCl [pH 7.4], 50 mM KCl, 1 mM DTT, […] and 5 ng/mL poly [dI-dC]) for 60 min at 25 °C. Finally, glycerol was added to a concentration of 6.5%. The samples were subjected to a 5% polyacrylamide gel electrophoresis and run in 0.5 × Tris-borate-EDTA buffer at 80 V for 1 h at room temperature. Imaging and data analyses were performed using a Typhoon Scanner (GE Healthcare) and Imagequant software. The probes used are listed in Supplementary Table 1.

BrlR R67A DNA binding = biological target: T4, BrlR R67A DNA binding (Pseudomonas aeruginosa, UniProt Q9HUT5, R67A); assay: EMSA, BrlR R67A; assay type: biochemical
T4 construct: His6-SUMO (N, cleaved yes); made in house; host or cells: E. coli BL21 DE3
Protocol: as §1

[1] = system: brlR promoter activity (C2E mut2); assay: β-galactosidase assay, C2E mut2; assay type: cell-based, Pseudomonas aeruginosa
Protocol: We also performed β-galactosidase activity assays using a PbrlR-brlR-lacZ reporter construct to investigate the transcriptional function of BrlR mutants in vivo. […] To confirm the effect of c-di-GMP in P. aeruginosa, we carried out real-time quantitative PCR analyses. Following a previous report, we introduced the diguanylate cyclase PA4843 into a WT P. aeruginosa strain carrying either pHERD20T-empty or pHERD20T-PA4843. The transcription level of brlR was analyzed using the brlR 5 F and brlR 3 R primers (Supplementary Table 1). The transcriptional level of brlR in pHERD20T-PA4843 strain is 4.5 ± 1.3-fold higher than that in the pHERD20T-empty strain (Fig. 4h).
β-galactosidase activity was assayed with P. aeruginosa PA01 ΔbrlR strain carrying plasmid pME6522-borne transcriptional lacZ fusions. P. aeruginosa carrying the empty vector was used as the […]. The reporter plasmids are derivatives of the pME6522 plasmid in which multiple cloning sites were inserted before the LacZ with the promoter and coding regions of brlR with diverse mutations. These reporter plasmids were transformed into the reporter strain. Overnight cultures were diluted 20-fold with LB medium supplemented with appropriate antibiotics. […]

T4 sequence (Q9HUT5 whole entry R67A): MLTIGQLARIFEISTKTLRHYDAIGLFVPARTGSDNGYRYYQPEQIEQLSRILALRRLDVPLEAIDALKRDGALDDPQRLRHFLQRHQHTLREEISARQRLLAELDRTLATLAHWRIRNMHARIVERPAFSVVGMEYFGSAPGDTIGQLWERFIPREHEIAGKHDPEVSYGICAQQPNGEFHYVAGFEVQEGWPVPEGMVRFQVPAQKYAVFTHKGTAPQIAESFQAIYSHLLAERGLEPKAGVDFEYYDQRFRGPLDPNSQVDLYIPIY
T2 sequence (Q9HUT5 120-270): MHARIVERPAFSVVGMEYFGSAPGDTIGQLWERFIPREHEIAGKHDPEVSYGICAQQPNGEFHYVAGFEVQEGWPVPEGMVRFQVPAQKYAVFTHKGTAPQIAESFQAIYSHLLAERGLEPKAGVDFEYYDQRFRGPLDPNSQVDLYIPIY
T3 sequence (Q9HUT5 whole entry R67A/R86A): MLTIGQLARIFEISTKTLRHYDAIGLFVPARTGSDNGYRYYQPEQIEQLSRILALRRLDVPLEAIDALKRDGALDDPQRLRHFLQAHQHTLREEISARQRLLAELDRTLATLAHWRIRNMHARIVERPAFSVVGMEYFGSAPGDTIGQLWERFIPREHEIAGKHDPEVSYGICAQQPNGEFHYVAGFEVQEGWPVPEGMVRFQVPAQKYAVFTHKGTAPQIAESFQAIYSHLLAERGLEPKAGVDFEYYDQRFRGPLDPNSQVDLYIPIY
T1 sequence (Q9HUT5 whole entry Y270A): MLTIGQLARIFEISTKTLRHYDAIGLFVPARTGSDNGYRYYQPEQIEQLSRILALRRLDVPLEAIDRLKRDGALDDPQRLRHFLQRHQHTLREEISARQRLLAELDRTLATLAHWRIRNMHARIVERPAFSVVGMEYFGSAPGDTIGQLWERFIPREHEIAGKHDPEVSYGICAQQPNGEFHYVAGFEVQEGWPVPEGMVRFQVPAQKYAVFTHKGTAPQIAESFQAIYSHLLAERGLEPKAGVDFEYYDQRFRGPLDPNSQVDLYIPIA

Nc1nc2c(ncn2[C@@H]2O[C@@H]3COP(=O)(O)O[C@H]4[C@@H](O)[C@H](n5cnc6c(=O)[nH]c(N)nc65)O[C@@H]4COP(=O)(O)O[C@H]3[C@H]2O)c(=O)[nH]1 [c-di-GMP, cyclic diguanylate monophosphate]
Kd (BrlR mutant Y270A): 40.8 ± 3.8 µM
competition with F-c-di-GMP binding to BrlR-C (BrlR-C): not
BrlR-DNA complex in the presence vs absence of c-di-GMP (C2E mut2 DNA binding): 1.9 fold
DNA bound in the presence vs absence of c-di-GMP (BrlR R67A DNA binding): ~ 5.2 fold
increase at high vs low c-di-GMP concentration (β-galactosidase activity) [1]: 2.2 fold
